According to ChEMBL document CHEMBL1201862, “PubChem BioAssay data set” (2004):
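Growth conditions: 96-well plates. Treatment: test compound, 48 hours, 5 concentrations. Analysis: linear interpolation between bracketing concentrations; unreached endpoints set to highest concentration. GI50: concentration for 50% inhibition of growth.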 Activity calls are given as the source filed them. No stated cut-off is given here; in the data, active = GI50 up to about 1.1 µM and inactive = higher.

Key:
Assay in all cases: NCI-60 cell line screen, 48 h
[1] = tested on: 786-0
[2] = tested on: A498
[3] = tested on: A549
[4] = tested on: ACHN
[5] = tested on: CCRF-CEM
[6] = tested on: COLO 205
[7] = tested on: DLD-1
[8] = tested on: DMS-114
[9] = tested on: DMS-273
[10] = tested on: EKVX
[11] = tested on: HCC 2998
[12] = tested on: HCT-15
[13] = tested on: HL-60
[14] = tested on: HOP-18
[15] = tested on: HT-29
[16] = tested on: IGROV-1
[17] = tested on: K562
[18] = tested on: KM12
[19] = tested on: LOX IMVI
[20] = tested on: LXFL 529
[21] = tested on: M14
[22] = tested on: M19-MEL
[23] = tested on: MOLT-4
[24] = tested on: Malme-3M
[25] = tested on: NCI-H226
[26] = tested on: NCI-H23
[27] = tested on: NCI-H460
[28] = tested on: OVCAR-3
[29] = tested on: OVCAR-4
[30] = tested on: OVCAR-5
[31] = tested on: OVCAR-8
[32] = tested on: RPMI-8226
[33] = tested on: RXF 393
[34] = tested on: RXF 631
[35] = tested on: SF-268
[36] = tested on: SF-295
[37] = tested on: SF-539
[38] = tested on: SK-MEL-28
[39] = tested on: SK-MEL-5
[40] = tested on: SK-OV-3
[41] = tested on: SN12C
[42] = tested on: SNB-19
[43] = tested on: SNB-75
[44] = tested on: SNB-78
[45] = tested on: SR
[46] = tested on: SW-620
[47] = tested on: TK-10
[48] = tested on: U-251
[49] = tested on: UACC-62
[50] = tested on: UO-31
[51] = tested on: XF498
[52] = tested on: CAKI-1
[53] = tested on: HCT-116
[54] = tested on: HOP-62
[55] = tested on: HOP-92
[56] = tested on: KM-20L2
[57] = tested on: NCI-H522
[58] = tested on: SK-MEL-2
[59] = tested on: UACC-257

Measured: GI50

Cn1c2c(c3ccccc31)C1CCCCC1C1C(=O)NC(=O)C21 (configuration not stated)
inactive: [1] 65 µM | [2] 22.5 µM | [3] 43.3 µM | [4] 35.2 µM | [5] 36.6 µM | [6] 39.9 µM | [7] 51.3 µM | [8] 50.4 µM | [9] > 10 µM | [10] 32.8 µM | [11] 52.2 µM | [13] 26.6 µM | [14] 33.4 µM | [15] 33.1 µM | [16] > 100 µM | [17] 40.6 µM | [18] 54.3 µM | [19] 33.1 µM | [20] > 100 µM | [21] 57.9 µM | [22] 58.3 µM | [23] 21.8 µM | [24] 32.1 µM | [25] 21.6 µM | [26] > 100 µM | [27] 34.8 µM | [28] 17 µM | [29] 56.5 µM | [30] > 100 µM | [31] 66.2 µM | [32] 41.8 µM | [33] 32.4 µM | [34] 41.4 µM | [35] 70.1 µM | [36] 57.7 µM | [37] 80.7 µM | [38] 88.9 µM | [39] 45 µM | [40] > 100 µM | [41] 33.2 µM | [42] > 100 µM | [43] 33.1 µM | [44] > 100 µM | [45] 32.1 µM | [46] 52 µM | [47] > 100 µM | [48] > 100 µM | [49] > 100 µM | [50] 28.6 µM | [51] 44.7 µM
68.9 µM: [12]

CC1C(O)=C(O)c2ccccc2N1O (configuration not stated)
96.6 µM: [12]
inactive: [1] > 100 µM | [2] > 100 µM | [3] > 100 µM | [4] > 100 µM | [52] > 100 µM | [5] 47.3 µM | [6] > 100 µM | [7] > 100 µM | [9] > 100 µM | [10] > 100 µM | [11] > 100 µM | [53] 49.8 µM | [13] 44.2 µM | [14] 93.8 µM | [54] 73.3 µM | [55] 31.9 µM | [15] 12.2 µM | [16] > 100 µM | [17] 38.7 µM | [56] > 100 µM | [18] > 100 µM | [19] 82.2 µM | [20] > 100 µM | [21] > 100 µM | [22] > 100 µM | [23] 77.6 µM | [24] > 100 µM | [25] 37.4 µM | [26] 54.7 µM | [27] > 100 µM | [57] 25.1 µM | [28] > 100 µM | [29] > 100 µM | [30] > 100 µM | [31] > 100 µM | [32] 80.4 µM | [33] 60.4 µM | [34] > 100 µM | [35] > 100 µM | [36] > 100 µM | [37] > 100 µM | [38] > 100 µM | [58] > 100 µM | [39] > 100 µM | [40] > 100 µM | [41] > 100 µM | [42] > 100 µM | [43] > 100 µM | [44] > 100 µM | [46] 98.9 µM | [47] > 100 µM | [48] > 100 µM | [59] 83.2 µM | [49] > 100 µM | [50] > 100 µM | [51] > 100 µM

CCOP(=O)(OCC)C1CCCCOC1=O (configuration not stated)
> 100 µM: [12]
inactive: [1] > 100 µM | [2] > 100 µM | [3] > 100 µM | [4] > 100 µM | [52] > 100 µM | [5] 76.7 µM | [6] > 100 µM | [7] > 100 µM | [8] > 100 µM | [9] > 100 µM | [10] > 100 µM | [11] > 100 µM | [53] > 100 µM | [13] > 100 µM | [14] 44.2 µM | [54] > 100 µM | [15] > 100 µM | [16] > 100 µM | [17] 44 µM | [56] > 100 µM | [18] > 100 µM | [19] 19.9 µM | [20] > 100 µM | [21] > 100 µM | [22] > 100 µM | [23] 33 µM | [24] > 100 µM | [26] > 100 µM | [27] 51.2 µM | [28] > 100 µM | [29] > 100 µM | [31] > 100 µM | [32] > 100 µM | [33] > 100 µM | [34] > 100 µM | [35] > 100 µM | [36] > 100 µM | [37] > 100 µM | [38] > 100 µM | [58] > 100 µM | [39] > 100 µM | [40] > 100 µM | [41] 95.9 µM | [42] > 100 µM | [43] > 100 µM | [44] > 100 µM | [46] > 100 µM | [47] > 100 µM | [48] > 100 µM | [59] > 100 µM | [49] > 100 µM | [50] > 100 µM | [51] > 100 µM
